Patent US12172959B2, “Mono- or di-substituted indole derivatives as dengue viral replication inhibitors” (priority 2015, dated 2024)

Experiments:
Format in all cases: cell-based
DENV-4 strain H241 = assay: Tetravalent RT-qPCR assay Protocol A, serotype 4 H241; settings: Dengue virus, DENV4, 72 h; Protocol A, RT-qPCR serotype 4 H241, Vero cells, day 3; read-out: EC50
Outline: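 Vero cells in MEM with 2% FCS were infected with DENV in the presence of compound and incubated for 3 days at 37° C. Lysates underwent RT and duplex qPCR for the viral 3′UTR and β-actin. EC50 came from ΔΔCp normalized to β-actin, and CC50 from the β-actin signal.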

[1] = tested on: DENV-4 strain SG/06K2270DK1/2005 (Eden); assay: Tetravalent RT-qPCR assay Protocol A, serotype 4 EDEN; settings: Dengue virus, DENV4, Vero, 72 h
Protocol: The antiviral activity of the compounds of the invention was tested against DENV-1 strain TC974#666 (NCPV; Table 6), DENV-2 strain 16681 (Table 7), DENV-3 strain H87 (NCPV; Table 8) and DENV-4 strains H241 (NCPV; Table 9A) and SG/06K2270DK1/2005 (Eden; Table 9B) in a RT-qPCR assay. Therefore, Vero cells were infected with either DENV-1, or -2, or -3, or -4 in the presence or absence of test compounds. At day 3 post-infection, the cells were lysed and cell lysates were used to prepare cDNA of both a viral target (the 3′UTR of DENV; Table 2) and a cellular reference gene (β-actin, Table 2). Subsequently, a duplex real time PCR was performed on a Lightcycler480 instrument. The generated Cp value is inversely proportional to the amount of RNA expression of these targets. Inhibition of DENV replication by test compound results in a shift of Cp's for the 3′UTR gene. On the other hand, if a test compound is toxic to the cells, a similar effect on β-actin expression will be observed. The comparative ΔΔCp method is used to calculate EC50, which is based on the relative gene expression of the target gene (3′UTR) normalized with the cellular housekeeping gene (β-actin).
The culture medium consisted of minimal essential medium supplemented with 2% of heat-inactivated fetal calf serum, 0.04% gentamycin (50 mg/mL) and 2 mM of L-glutamine. Vero cells, obtained from ECACC, were suspended in culture medium and 75 μL/well was added in 96-well plates (10000 cells/well), which already contain the antiviral compounds. […] In addition, each plate contains wells which are assigned as virus controls (containing cells and virus in the absence of compound) and cell controls (containing cells in the absence of virus and compound). Once the cells were added in the plates, the plates were incubated in a fully humidified incubator (37° C., 5% CO2) until the next day. Dengue viruses serotype-1, 2, 3 and 4 were diluted in order to obtain a Cp of ˜22-24 in the assay. Therefore, 25 μL of virus suspension was added to all the wells containing test compound and to the wells assigned as virus control. In parallel, 25 μL of culture medium was added to the cell controls. Next, the plates were incubated for 3 days in a fully humidified incubator (37° C., 5% CO2). After 3 days, the supernatant was removed from the wells and the cells were washed twice with ice-cold PBS (˜100 μL). The cell pellets within the 96-well plates were stored at −80° C. for at least 1 day. Next, RNA was extracted using the Cells-to-CT™ lysis kit, according to the manufacturer's guideline (Life Technologies). The cell lysates can be stored at −80° C. or immediately used in the reverse transcription step.
In preparation of the reverse transcription step, mix A (table 3A) was prepared and 7.57 μL/well was dispensed in a 96-well plate. After addition of 5 μL of the cell lysates, a five minute denaturation step at 75° C. was performed (table 3B). Afterwards, 7.43 μL of mix B was added (table 3C) and the reverse transcription step was initiated (table 3D) to generate cDNA.
Finally, a RT-qPCR mix was prepared, mix C (table 4A), and 22.02 μL/well was dispensed in 96-well LightCycler qPCR plates to which 3 μL of cDNA was added and the qPCR was performed according to the conditions in table 4B on a LightCycler 480.
Using the LightCycler software and an in-house LIMS system, dose response curves for each compound were calculated and the half maximal effective concentration (EC50) and the half maximal cytotoxic concentration (CC50) were determined.

[2] = tested on: DENV-1 strain Djibouti strain (D1/H/IMTSSA/98/606); assay: Tetravalent RT-qPCR assay Protocol B, serotype 1; settings: Dengue virus, DENV1, 168 h, RT-qPCR serotype 1 Djibouti, 7 days
Protocol: (§1) The antiviral activity of the compounds of the invention was tested against DENV-1 strain Djibouti strain (D1/H/IMTSSA/98/606; Table 6), DENV-2 strain NGC (Table 7), DENV-3 strain H87 (Table 8) and DENV-4 strain SG/06K2270DK1/2005 (Table 9B) in a RT-qPCR assay. Vero-B or Vero-M cells (5×10^4) were seeded in 96-well plates. One day later, culture medium was replaced with 100 μL assay medium containing a 2×, 3× or 5× serial dilution of the compound (concentration range: 50 μg/mL-0.00038 μg/mL, 50 μg/mL-0.0076 μg/mL, and 50 μg/mL-0.00013 μg/mL, respectively) and 100 μL of dengue virus inoculum (DENV). Following a 2 hour incubation period, the cell monolayer was washed 3 times with assay medium to remove residual, non-adsorbed virus and cultures were further incubated for either 4 days (DENV-2 NGC) or 7 days (DENV-1 Djibouti strain D1/H/IMTSSA/98/606, DENV-3 strain H87 prototype, DENV-4 strain H241, and DENV-4 strain EDEN) in the presence of the inhibitor. Supernatant was harvested and viral RNA load was determined by real-time quantitative RT-PCR. The 50% effective concentration (EC50), which is defined as the compound concentration that is required to inhibit viral RNA replication by 50%, was determined using logarithmic interpolation.
(§2) RNA was isolated from 100 μL (or in some circumstances 150 μL) supernatant with the NucleoSpin 96 Virus kit (Filter Service, Duren, Germany) as described by the manufacturer. The sequences of the TaqMan primers (DENV-For, DENV-Rev; Table 5) and TaqMan probes (DENV-Probe Table 5) were selected from non-structural gene 3 (NS3) or NS5, of the respective flaviviruses using Primer Express software (version 2.0; Applied Biosystems, Lennik, Belgium). The TaqMan probe was fluorescently labelled with 6-carboxyfluorescein (FAM) at the 5′ end as the reporter dye, and with minor groove binder (MGB) at the 3′ end as the quencher (Table 5). One-step, quantitative RT-PCR was performed in a total volume of 25 μL, containing 13.9375 μL H2O, 6.25 μL master mix (Eurogentec, Seraing, Belgium), 0.375 μL forward primer, 0.375 μL reverse primer, 1 μL probe, 0.0625 μL reverse transcriptase (Eurogentec) and 3 μL sample. RT-PCR was performed using the ABI 7500 Fast Real-Time PCR System (Applied Biosystems, Branchburg, New Jersey, USA) using the following conditions: 30 min at 48° C. and 10 min at 95° C., followed by 40 cycles of 15 s at 95° C. and 1 min at 60° C. The data was analyzed using the ABI PRISM 7500 SDS software (version 1.3.1; Applied Biosystems). For absolute quantification, standard curves were generated using 10-fold dilutions of template preparations of known concentrations.

DENV-2 strain NGC = assay: Tetravalent RT-qPCR assay Protocol B, serotype 2; settings: Dengue virus, DENV2, 96 h, RT-qPCR serotype 2 NGC-Tongalike, 4 days
Protocol: as §1, §2

## COc1cc(NC(C(=O)c2c[nH]c3cc(F)ccc23)c2ccc(Cl)cc2OC)cc(S(C)(=O)=O)c1 (single isomer, unassigned) [Compound 1A, 2-(4-chloro-2-methoxyphenyl)-1-(6-fluoro-1H-indol-3-yl)-2-((3-methoxy-5-(methylsulfonyl)phenyl)amino)ethanone]
DENV-4 strain H241
  EC50: 93 nM
[1]
  EC50: 2.4 nM
[2]
  EC50: < 15 nM
DENV-2 strain NGC
  EC50: < 0.27 nM

## COc1cc(NC(C(=O)c2c[nH]c3c(C)c(F)ccc23)c2ccc(Cl)cc2OC)cc(S(C)(=O)=O)c1 (single isomer, unassigned) [Compound 2A, 2-(4-chloro-2-methoxyphenyl)-1-(6-fluoro-7-methyl-1H-indol-3-yl)-2-((3-methoxy-5-(methylsulfonyl)phenyl)amino)ethanone]
DENV-4 strain H241
  EC50: 83 nM
[1]
  EC50: 1.3 nM
[2]
  EC50: < 14 nM
DENV-2 strain NGC
  EC50: < 0.24 nM

## COc1cc(NC(C(=O)c2c[nH]c3cc(OC)c(C)cc23)c2ccc(Cl)cc2OC)cc(S(C)(=O)=O)c1 (single isomer, unassigned) [Compound 4A, 2-(4-chloro-2-methoxyphenyl)-2-((3-methoxy-5-(methyl-sulfonyl)phenyl)amino)-1-(6-methoxy-5-methyl-1H-indol-3-yl)ethanone]
DENV-4 strain H241
  EC50: 53 nM
[1]
  EC50: 0.55 nM
[2]
  EC50: < 14 nM
DENV-2 strain NGC
  EC50: 0.32 nM

## COc1cc(NC(C(=O)c2c[nH]c3cc(OC)c(F)cc23)c2ccc(Cl)cc2OC)cc(S(C)(=O)=O)c1 (single isomer, unassigned) [Compound 5A, 2-(4-chloro-2-methoxyphenyl)-1-(5-fluoro-6-methoxy-1H-indol-3-yl)-2-((3-methoxy-5-(methylsulfonyl)phenyl)amino)ethanone]
DENV-4 strain H241
  EC50: 100 nM
[1]
  EC50: 2.9 nM
[2]
  EC50: < 14 nM
DENV-2 strain NGC
  EC50: < 0.23 nM

## COc1cc(NC(C(=O)c2c[nH]c3c(C)c(OC)ccc23)c2ccc(Cl)cc2OC)cc(S(C)(=O)=O)c1 (single isomer, unassigned) [Compound 6A, 2-(4-chloro-2-methoxyphenyl)-2-((3-methoxy-5-(methyl-sulfonyl)phenyl)amino)-1-(6-methoxy-7-methyl-1H-indol-3-yl)ethanone]
DENV-4 strain H241
  EC50: 95 nM
[1]
  EC50: 0.42 nM
[2]
  EC50: < 14 nM
DENV-2 strain NGC
  EC50: < 0.24 nM
